What was measured:
[1] = tested on: ciliary accumulation of Smo in Ptch−/− MEF; assay: Immunostaining of Smo in primary cilia of Ptch−/− MEF; assay type: cell-based, mouse; conditions: 5 µM, 24 hours
Procedure: PTCH−/− MEF were seeded on pre-coated glass slides (1 hour coating with 0.1% Gelatin (G1393) and 0.003% Collagen (C8919) (Sigma-Aldrich) in PBS). 80% confluent cells were switched from 10% to 0.5% FBS in medium and cells were treated with DMSO or 5 µM MS-0022 for 24 hours in (n = 3) before subsequent immunofluorescent staining: Slides were fixed with 4% paraformaldehyde (Sigma-Aldrich), permeabilized for 10 min in 0.1% v/v Triton X-100 (Sigma-Aldrich) in PBS (PBT), and blocked with 10% w/v BSA (Saveen Werner) in PBT for 1 hour. Primary antibodies, mouse anti-acetylated tubulin (a-Tub) (Sigma-Aldrich (T7451), 1∶1000) goat anti-Smo (Santa Cruz Biotechnology (sc-6367), 1∶1000), and goat anti-GLI-1 (RnD systems (AF3455), 1∶500) were diluted in 0.5% w/v BSA in PBT and left on the slides over night at 4°C. Secondary antibodies donkey anti-goat IgG-Alexa 594 and donkey anti-mouse IgG-Alexa 488 (Invitrogen, both at 1∶500) were added in 0.5% w/v BSA in PBT for 1 hour. The slides were counterstained with DAPI (Roche, 1 mg/ml) in PBS. 3 random regions were imaged pr slide using a confocal LSM510 microscope (Carl Zeiss MicroImaging). The ratio of […] positive cilia was quantified manually or processed and analyzed using ImageJ to quantify the intensity of Smo and aTub for each cilium in the images (http://rsb.info.nih.goc/ij/). […]

[2] = tested on: Wnt signaling in HEK293 cells; assay: Wnt luciferase reporter assay (SuperTop-luc) in HEK293; assay type: cell-based; conditions: HEK293, 10 and 20 µM, 24 hours
Procedure: Vectors were obtained from the following: GliBS-Luc reporter (gift from H. Sasaki), pBluescript (pBS) (Stratagene), FL-HA-GLI1 (Gli1) and Gli2-GFP (Gli2) (gifts from R. Toftgård), Super8XTOPFlash, and NFkB-luc (Panomics). 10 ng renilla luciferase (pRL-TK) (Promega) was used as a transfection control. HEK293 and NIH3T3 cells were seeded at 80,000 per well in 48-well plates on day 1, and were co-transfected on day 2 using a total of 0.4 µg plasmid per well mixed at 1∶3 in FUGENE6 according to manufacturer^'s instructions. On day 3, control medium and activating medium (50% L1 conditioned medium, 50% Shh conditioned medium or medium containing 10 ng/mL recombinant rcrTNF-α (R&D Systems)) +/− 10–20 µM MS-0022 were added, using DMSO as a control (the NFkB pathway inhibitor Bay11-7082 was used as a control in the NFkB assay). Samples were analyzed on day 4 or 5 using the Dual Luciferase assay kit according to manufacturer^'s instructions. Graphs display relative or fold reporter activity, and are calculated from a mean ratio of firefly reporter luminescence/pRL-TK luminescence with standard deviation error bars (n = 3). The experiments have been repeated with similar results.

[3] = Compound concentration in mouse liver tissue; assay type: in vivo; conditions: C57BL, 5 mg/kg, 2 hours after IP administration
SUIT-2 xenograft = assay: SUIT-2 subcutaneous xenograft in CB17/SCID mice; assay type: in vivo
[4] = tested on: GLI1 mRNA in PANC-1 cells; assay: Real time PCR of GLI1 mRNA in PANC-1; assay type: cell-based, human; conditions: 5 µM, 48 hrs
Procedure: (§1) Cells were lysed for RNA extraction after 48 or 72 hours of treatment. Total RNA from cultured cells or tumor tissue was isolated using the GeneElute miniprep kit (Sigma-Aldritch) following the manufacturer^'s instructions. cDNA was synthesized from the isolated mRNA using the Retroscript kit (Ambion), and real-time PCR was carried out using the SYBR Green PCR master mix (Stratagene) according to the manufacturer^'s instructions with an Mx3000P cycler (Stratagene). The relative concentrations of cDNA present in each sample were calculated by the MxPro software (Stratagene), normalized for GAPDH (mRNA from cells) or GUS (mRNA from tumors). For real time PCR primer sequences see Table 6. For the tumor tissue real time PCR, previously described human and mouse specific primers against GUSB, PTCH1 and GLI1were used.

[5] = Liver transaminases (AST/ALT) in xenografted mice; assay type: in vivo, mouse; conditions: 50 mg/kg, 30 days injection scheme (5 day injection, 2 day pause), PANC-1 xenograft mice
Procedure: For PANC-1 xenografts, 4–6 week old CB17/SCID mice were injected with 5×10^6 PANC-1 (n = 6 per group) cells in 200 µl PBS subcutaneously on day 1. IP treatment with 50 mg/kg MS-0022 began when median tumor size reached 25 mm^2 (day 27). MS-0022 was pulverized using a pestle, and was mixed into a stable suspension in water containing 1% Tween 80 (Sigma-Aldrich). Mice were treated with MS-0022 or solvent for a period of 30 days after initiation in a 5 day injection 2 day pause scheme, and tumor size was measured throughout using calipers (mm^2). After 30 days the mice were sacrificed and tumors dissected and weighed. The PANC-1 xenograft endpoint was taken two days after the last compound treatment.
Blood was collected from the hepatic vein of freshly sacrificed animals into heparinized capillary blood collection tubes (Sarstedt), which were immediately centrifuged and the serum was collected. AST and ALT were run on non-hemolyzed samples using AST and ALT kits (Randox) following the manufacturer^'s instructions.

[6] = tested on: Hh pathway in Shh-L2 cells; assay: Hh reporter assay in Shh-L2 cells; assay type: cell-based, mouse
Procedure: Shh-L2 cells were used as a Hh reporter cell line as described previously. Hh signaling was induced by Shh conditioned medium, 200 nM SAG (AH-Diagnostics) and ActOXS (a combination of 5 µM Hydroxycholesterol 20-alfa and 5 µM Hydroxycholesterol 22S (Sigma-Aldrich)). For Shh conditioned medium, Shh-PANC-1 cells were grown to confluence and switched to fresh medium. Shh conditioned medium was harvested after 48 hours, and was diluted to 50% in fresh DMEM before use. The clonal Shh-PANC-1 cell line was generated by stably transducing PANC-1 cells with virus containing medium from HEK293T cells that were transfected using a Virapower Lentiviral expression kit (Invitrogen). The vector was produced by removing GFP from a pLenti 6.2-vector, and inserting the mouse Shh cDNA sequence.
The calculations were performed with an online calculator using the formula: a exp (−bx) + c at the website; http://www.changbioscience.com/stat/ec50.html

GLI1 mRNA in PC-3 cells = assay: Real time PCR of GLI1 mRNA in PC-3; assay type: cell-based, human; conditions: 48 hrs
Procedure: as §1

[7] = 50 mg/kg daily PO, 18 days, vs control group

## Cc1cccn2cc(-c3ccc(NC(=O)c4ccccc4Br)cc3)nc12 [MS-0022, 2-bromo-N-(4-(8-methylimidazo[1,2-a]pyridin-2-yl)phenyl)benzamide]
[1]
  ciliary accumulation of Smo: effectively blocked ciliary accumulation of Smo
[2]
  L1 medium induced Wnt signaling: did not significantly block
[3]
  concentration at 2 h: 244 ng/g
SUIT-2 xenograft; 50 mg/kg daily PO
  animal weight, SUIT-2 xenograft mice: unaffected
  outwards signs of toxicity, SUIT-2 xenograft mice: did not result in any outwards signs of toxicity
SUIT-2 xenograft; [7]
  reduction in tumor volume, SUIT-2 xenograft: 27%
  reduction in tumor weight, SUIT-2 xenograft: 36%
SUIT-2 xenograft; after 7 days of treatment, 50 mg/kg PO, 50 mg/kg
  mouse (stromal) Gli1 mRNA in SUIT-2 tumors: reduced significantly
SUIT-2 xenograft; endpoint of the experiment (18 days), 50 mg/kg PO
  human or mouse Gli1, or Ptch1 mRNA levels in SUIT-2 tumors: no statistical relevant reduction
[4]
  GLI1 mRNA levels, PANC-1: without reducing GLI1 mRNA levels
[5]
  AST/ALT levels: greater than 1
[6]; 5 µM, 48 hours, Shh, 200 nM SAG, ActOxs (5 µM+5 µM)
  Hh pathway induction in Shh, SAG and ActOXS induced Shh-L2 cells: blocked Hh pathway induction
[6]; Mus musculus, pathway inhibition in Shh induced Shh-L2 cells, 48 hours treatment
  IC50: 100 nM
GLI1 mRNA in PC-3 cells
  GLI1 mRNA levels, PC-3: reduced GLI1 mRNA levels

— PMC3115942 (PLoS ONE, 2011)
